In paper PMC4600319 (Malaria Journal, 2015):
Several values for one entry are separate records, joined by “and”; a condition that tells them apart may be missing. Equal values may be shown once. Read-outs that look alike come from different tables or passages of the source.

Tests used:
[1] = previous report, healthy Thai volunteers; cited from earlier work
[2] = Open-label, three-way, sequential, cross-over pharmacokinetic interaction study, plasma, non-compartmental analysis; type: in vivo, human (healthy Thai adults); conditions: for plasma concentration 1 h post-dose on Day 3: median; for Tmax / AUC(0-t) / half-life / AUC(0-inf) / Cmax / AUC0–12h / Vd/F: plasma; for Tmax / AUC(0-t) / half-life / AUC(0-inf) / Cmax / AUC0–12h / Vd/F / CL/F: median (95 % CI); for half-life: read-out: t1/2z (converted); for extrapolated AUC from the last blood sampling time to infinity (AUCt−∞) / inter-individual variability in AUC0−24h / inter-individual variability of plasma concentrations: in vivo; for t1/2z GMR (90 % CI): geometric mean ratio; for Vd/F: read-out: Vz/F
Protocol: This was an open-label, three-way, sequential, cross-over, pharmacokinetic study in healthy adult volunteers. […] Written informed consent for study participation was obtained from each subject before study. […] Consenting adults were screened for eligibility and a physical examination, electrocardiogram (ECG), and laboratory safety tests (haematology, biochemistry, urinalysis, and pregnancy status) were performed. Figure 1 summarizes the study design. The pharmacokinetic sampling was performed sequentially on three occasions. […] Ltd., China). Mefloquine doses were given as three tablets on Day 1 and two tablets on Day 2 (250 mg mefloquine per tablet, manufactured by Atlantic Pharmaceutical Ltd., China). There was a 2-months wash-out period between Period 1 and Period 2. Period 2: subjects received oral doses of LPV/r (400/100 mg), twice daily, for 14 days (27 doses). There was no washout between Period 2 and Period 3. […] Immediately after collection, all blood samples were centrifuged (1200×g, 10 min) and the plasma samples were stored at -80 °C until analysis. […] University. […] An Agilent 1260 LC system (Agilent Technologies, CA, USA) coupled with an API 5000 triple quadrupole mass spectrometer (Applied Biosystems/MDS SCIEX, Foster City, USA), with a TurboVTM ionization source (TIS) interface operated in the positive ion mode, was used for the multiple reaction monitoring LC-MS/MS analysis. […] Nitrogen gas was supplied from an AB-3G (Peak Scientific, Inchinnan, UK). […] Chromatographic separation was performed using an […] XDB C18 column (5 μm, 4.6 mm × 150 mm; Thermo Fisher Scientific, MA, USA) protected with an Eclipse XDB-C8 guard column (Thermo Electron Corporation, MA, USA). The gradient mobile phase consisted of a mixture of 10 mM ammonium acetate with 0.1 % glacial acetic acid and acetonitrile running at a flow rate of 0.7 mL/min. Total run time was 12 min. […] Measurement of plasma concentrations of mefloquine was performed using high performance liquid chromatography (HPLC) according to the method of Karbwang et al. with modifications. Chromatographic separation was performed on a Hypersil ODS column (5 μm, 4.6 mm × 250 mm; Thermo Fisher Scientific, MA, USA) protected with an Eclipse XDB-C8 guard column (Thermo Electron Corporation, MA, USA). […] The UV detector was set at the wavelength of 220 nm. […] This laboratory participates in the NIAID Clinical Pharmacology Quality Assurance Programme Proficiency Testing. Pharmacokinetic parameters were determined using a non-compartmental analysis using WinNonLin software (version 6.3, […], USA). […] The Cmax (maximum concentration); tmax (time of maximum concentration) were determined by direct inspection of the plasma concentration-time data. […] The extrapolated AUC from the last sampling time to infinity was estimated from Ct/elimination rate constant (lz). lz was calculated from at least five concentration-time points of elimination phase. Apparent oral clearance (CL/F) was calculated as dose/AUC0-∞. Volume of distribution (Vz/F) was calculated as CL/F/lz, and the terminal half-life (t1/2z) was calculated as 0.693/lz. […] Statistical analysis of the data was performed using SPSS version 16.0 (Gorichem, The Netherlands). Pharmacokinetic parameters are presented as median and 95 % confidence intervals (95 % CI). […] Comparison of the frequency of subjects with adverse events between the two groups was performed using a Chi-square test. Statistical significance level was set at a = 0.05 for all tests.

[3] = both sexes, human, oral, 3-day artesunate-mefloquine with LPV/r 400/100 mg twice a day (Period 3), read-out: tmax
[4] = both sexes, human, oral, 3-day artesunate-mefloquine alone (Period 1), read-out: AUC0–24h
[5] = both sexes, human, oral, 3-day artesunate-mefloquine alone (Period 1)
[6] = both sexes, human, oral, 3-day artesunate-mefloquine with LPV/r (Period 3), read-out: AUC0–24h
[7] = both sexes, human, oral, 3-day artesunate-mefloquine with LPV/r (Period 3), read-out: Cmax
[8] = both sexes, human, oral, 3-day artesunate-mefloquine with LPV/r (Period 3)
[9] = both sexes, human, po, 3-day artesunate-mefloquine alone (Period 1), oral, read-out: Cmax
[10] = both sexes, human, 3-day artesunate-mefloquine alone (Period 1), oral, read-out: tmax
[11] = in the presence of LPV/r vs alone
[12] = in the presence of steady-state LPV/r vs alone
[13] = LPV/r 400/100 mg twice daily alone (Period 2)
[14] = LPV/r with 3-day artesunate-mefloquine (Period 3)
[15] = both sexes, human, oral, LPV/r 400/100 mg twice daily alone (Period 2), read-out: Cmax
[16] = both sexes, human, oral, LPV/r 400/100 mg twice daily alone (Period 2)
[17] = both sexes, human, oral, LPV/r with 3-day artesunate-mefloquine (Period 3), read-out: AUC0–12h
[18] = both sexes, human, oral, LPV/r with 3-day artesunate-mefloquine (Period 3)
[19] = in the presence of artesunate-mefloquine vs LPV/r alone
[20] = with artesunate-mefloquine vs LPV/r alone
[21] = 750 and 500 mg 24 h apart vs previous study in healthy Thai subjects, 750 and 500 mg 6 h apart (ref 47, 48)

C[C@H]1[C@@H](O)O[C@@H]2O[C@@]3(C)CC[C@H]4[C@H](C)CC[C@@H]1[C@@]24OO3 [Dihydroartemisinin, dihydroartemisinin]
t1/2z [1]: 0.74 h | reduction in the AUC ([2]; LPV/r co-administration): 50% | plasma concentration 1 h post-dose on Day 3 ([2]; artesunate given with LPV/r): 310 ng/mL | plasma concentration 1 h post-dose on Day 3 ([2]; artesunate-mefloquine without LPV/r): 580 ng/mL | Tmax [2, 3]: 2 h | AUC(0-t) [2, 4]: 2.37 µg·h/mL | half-life [2, 5]: 4.02 h | AUC(0-inf) [2, 5]: 2.68 µg·h/mL | AUC(0-t) [2, 6]: 0.99 µg·h/mL | Cmax [2, 7]: 310 ng/mL | half-life [2, 8]: 9.99 h | AUC(0-inf) [2, 8]: 1.37 µg·h/mL | Cmax [2, 9]: 580 ng/mL | Tmax [2, 10]: 2 h | 90 % CI of the GMR of AUC0−24h vs bioequivalent range of 0.8-1.25 ([2]; combination vs alone): outside the acceptable bioequivalent range | 90 % CI of the GMR of Cmax vs bioequivalent range of 0.8-1.25 ([2]; combination vs alone): outside the acceptable bioequivalent range | decrease in AUC0-24 h (as nmol h/mL) relative to the increase in artesunate AUC ([2]; in the presence of LPV/r): about 180% | decrease in AUC0−∞ [2, 11]: ~48.8% | decrease in Cmax [2, 11]: about 46.6% | decrease in AUC0−24h [2, 12]: ~58.2% | increase in t1/2z [2, 12]: 148.5% | extrapolated AUC from the last blood sampling time to infinity (AUCt−∞) [2]: less than 5% | inter-individual variability in AUC0−24h [2]: 80.2% | t1/2z GMR (90 % CI) ([2]; with LPV/r vs alone): 1.89 (1.00, 3.58)

C[C@H]1[C@H](OC(=O)CCC(=O)O)O[C@@H]2O[C@@]3(C)CC[C@H]4[C@H](C)CC[C@@H]1[C@@]24OO3 [Artesunate, artesunate]
Tmax [2, 3]: 1 h | AUC(0-t) [2, 4]: 0.2 µg·h/mL | AUC(0-t) [2, 6]: 0.24 µg·h/mL | Cmax [2, 7]: 140 ng/mL | Cmax [2, 9]: 110 ng/mL | Tmax [2, 10]: 1 h | 90 % CI of the GMR of AUC0−24h vs bioequivalent range of 0.8-1.25 ([2]; combination vs alone): outside the acceptable bioequivalent range | increase in Cmax and systemic exposure [2, 11]: 45–80% | inter-individual variability in AUC0−24h [2]: 54.4%

Cc1cccc(C)c1OCC(=O)N[C@@H](Cc1ccccc1)[C@@H](O)C[C@H](Cc1ccccc1)NC(=O)[C@H](C(C)C)N1CCCNC1=O [Lopinavir, lopinavir]
AUC0–12h [2, 13]: 103.32 (82.62, 124.01) μg h/mL | Tmax [2, 13]: 4.0 (3.1, 4.8) h | Cmax [2, 14]: 9.62 (7.99, 11.24) μg/mL | Cmax [2, 15]: 12400 ng/mL | AUC(0-inf) [2, 16]: 229 µg·h/mL | Vd/F [2, 16]: 0.45 L/kg | half-life [2, 16]: 9.8 h | AUC(0-t) [2, 17]: 90.5 µg·h/mL | AUC(0-inf) [2, 18]: 130 µg·h/mL | Vd/F [2, 18]: 0.53 L/kg | half-life [2, 18]: 6.6 h | 90 % CI of the GMR of Cmax vs bioequivalent range of 0.8-1.25 ([2]; combination vs alone): outside the acceptable bioequivalent range | decrease in Cmax [2, 19]: 22% and 22.1% | increase in CL/F [2, 19]: 75.4% | extrapolated AUC from the last blood sampling time to infinity (AUCt−∞) [2]: less than 5% | inter-individual variability of plasma concentrations [2]: 50.6 to 127.6% | t1/2z GMR (90 % CI) [2, 20]: 0.71 (0.45, 1.13)

OC(c1cc(C(F)(F)F)nc2c(C(F)(F)F)cccc12)C1CCCCN1 (centres unmarked) [Mefloquine, mefloquine]
CL/F ([2]; 3-day artesunate-mefloquine alone (Period 1)): 1.08 (0.78, 1.37) L/h | CL/F ([2]; 3-day artesunate-mefloquine with LPV/r (Period 3)): 1.67 (1.03, 2.30) L/h | lower CL/F relative to previous study [2, 21]: 33.4% | smaller Vz/F relative to previous study [2, 21]: 40% | Tmax [2, 3]: 33 h | AUC(0-t) ([2]; both sexes, human, oral, 3-day artesunate-mefloquine alone (Period 1), read-out: AUC0–48h): 952 µg·h/mL | half-life [2, 5]: 344 h | AUC(0-inf) [2, 5]: 1160 µg·h/mL | Vd/F [2, 5]: 9.24 L/kg | AUC(0-t) ([2]; both sexes, human, oral, 3-day artesunate-mefloquine with LPV/r (Period 3), read-out: AUC0–48h): 678 µg·h/mL | Cmax [2, 7]: 2340 ng/mL | half-life [2, 8]: 336 h | AUC(0-inf) [2, 8]: 751 µg·h/mL | Vd/F [2, 8]: 12.8 L/kg | Cmax [2, 9]: 2900 ng/mL | Tmax [2, 10]: 33 h | 90 % CI of the GMR of AUC0−168h vs bioequivalent range of 0.8-1.25 ([2]; combination vs alone): outside the acceptable bioequivalent range | 90 % CI of the GMR of AUC0−∞ vs bioequivalent range of 0.8-1.25 ([2]; combination vs alone): outside the acceptable bioequivalent range | 90 % CI of the GMR of Cmax vs bioequivalent range of 0.8-1.25 ([2]; combination vs alone): outside the acceptable bioequivalent range | decrease in AUC0−48h [2, 11]: 28.7% | decrease in AUC0−168h [2, 11]: 37.1% | decrease in AUC0−∞ [2, 11]: 35.2% | decrease in Cmax [2, 11]: 19.3% | increase in CL/F [2, 11]: 54.6% | increase in Vz/F [2, 11]: 37.9% | reduction in Cmax and systemic exposure [2, 11]: 19–37% | extrapolated AUC from the last blood sampling time to infinity (AUCt−∞) [2]: less than 10% | inter-individual variability of plasma concentrations [2]: 34.2 to 96.9% | t1/2z GMR (90 % CI) ([2]; with LPV/r vs alone): 1.14 (0.90, 1.45)

CC(C)c1nc(CN(C)C(=O)N[C@H](C(=O)N[C@@H](Cc2ccccc2)C[C@H](O)[C@H](Cc2ccccc2)NC(=O)OCc2cncs2)C(C)C)cs1 [Ritonavir, ritonavir]
AUC0–12h [2, 13]: 8.11 (5.71, 10.50) μg h/mL | Tmax [2, 13]: 4.0 (3.1, 4.8) h | CL/F [2, 13]: 9.27 (4.74, 13.80) L/h | Tmax [2, 14]: 4.0 (3.1, 4.8) h | CL/F [2, 14]: 21.24 (8.71, 33.77) L/h | Cmax [2, 15]: 1530 ng/mL | AUC(0-inf) [2, 16]: 10.8 µg·h/mL | Vd/F [2, 16]: 0.97 L/kg | half-life [2, 16]: 4.3 h | AUC(0-t) [2, 17]: 4.49 µg·h/mL | Cmax ([2]; both sexes, human, oral, LPV/r with 3-day artesunate-mefloquine (Period 3), read-out: Cmax): 680 ng/mL | AUC(0-inf) [2, 18]: 4.71 µg·h/mL | Vd/F [2, 18]: 1.75 L/kg | half-life [2, 18]: 3.7 h | 90 % CI of the GMR of AUC0−12h vs bioequivalent range of 0.8-1.25 ([2]; combination vs alone): outside the acceptable bioequivalent range | 90 % CI of the GMR of AUC0−∞ vs bioequivalent range of 0.8-1.25 ([2]; combination vs alone): outside the acceptable bioequivalent range | 90 % CI of the GMR of Cmax vs bioequivalent range of 0.8-1.25 ([2]; combination vs alone): outside the acceptable bioequivalent range | decrease in AUC0–12h [2, 19]: 44.6% | decrease in AUC0−∞ [2, 19]: 56.3% | decrease in Cmax [2, 19]: 54.9% | increase in CL/F [2, 19]: 129.1% | increase in Vz/F [2, 19]: 80.4% | extrapolated AUC from the last blood sampling time to infinity (AUCt−∞) [2]: less than 5% | inter-individual variability of plasma concentrations [2]: 21.3 to 62.9% | t1/2z GMR (90 % CI) [2, 20]: 0.87 (0.68, 1.11)
